Experimental data as given in ChEMBL document CHEMBL1201862, “PubChem BioAssay data set” (2004).
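Exposure lasted 48 hours, with cells grown in 96-well plates and compounds tested at five concentrations. At the GI50, growth is halved.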 Active and inactive are the calls of the source. No stated cut-off is given here; in the data, active = GI50 up to about 1.1 µM and inactive = higher.

Legend:
Assay in all cases: DTP human tumour cell line panel, 48 h
[1] = test system: 786-0
[2] = test system: A498
[3] = test system: A549
[4] = test system: ACHN
[5] = test system: CAKI-1
[6] = test system: CCRF-CEM
[7] = test system: DLD-1
[8] = test system: DMS-114
[9] = test system: DMS-273
[10] = test system: EKVX
[11] = test system: HCC 2998
[12] = test system: HCT-116
[13] = test system: HCT-15
[14] = test system: HL-60
[15] = test system: HOP-62
[16] = test system: HOP-92
[17] = test system: HT-29
[18] = test system: IGROV-1
[19] = test system: K562
[20] = test system: KM-20L2
[21] = test system: KM12
[22] = test system: LOX IMVI
[23] = test system: M14
[24] = test system: M19-MEL
[25] = test system: MOLT-4
[26] = test system: Malme-3M
[27] = test system: NCI-H226
[28] = test system: NCI-H23
[29] = test system: NCI-H460
[30] = test system: NCI-H522
[31] = test system: OVCAR-3
[32] = test system: OVCAR-4
[33] = test system: OVCAR-5
[34] = test system: OVCAR-8
[35] = test system: RPMI-8226
[36] = test system: RXF 393
[37] = test system: SF-268
[38] = test system: SF-295
[39] = test system: SF-539
[40] = test system: SK-MEL-28
[41] = test system: SK-MEL-2
[42] = test system: SK-MEL-5
[43] = test system: SK-OV-3
[44] = test system: SN12C
[45] = test system: SNB-19
[46] = test system: SNB-75
[47] = test system: SNB-78
[48] = test system: SW-620
[49] = test system: TK-10
[50] = test system: U-251
[51] = test system: UACC-257
[52] = test system: UACC-62
[53] = test system: UO-31
[54] = test system: COLO 205
[55] = test system: LXFL 529
[56] = test system: SR

What does the source list for `CCN(CC)C(=O)CNC(=O)OC(C)(C)C`?
GI50 [1]: > 100 µM (inactive); GI50 [2]: > 100 µM (inactive); GI50 [3]: > 100 µM (inactive); GI50 [4]: > 100 µM (inactive); GI50 [5]: > 100 µM (inactive); GI50 [6]: > 100 µM (inactive); GI50 [7]: > 100 µM (inactive); GI50 [8]: > 100 µM (inactive); GI50 [9]: > 100 µM (inactive); GI50 [10]: > 100 µM (inactive); GI50 [11]: > 100 µM (inactive); GI50 [12]: > 100 µM (inactive); GI50 [13]: > 100 µM; GI50 [14]: > 100 µM (inactive); GI50 [15]: > 100 µM (inactive); GI50 [16]: > 100 µM (inactive); GI50 [17]: > 100 µM (inactive); GI50 [18]: > 100 µM (inactive); GI50 [19]: > 100 µM (inactive); GI50 [20]: > 100 µM (inactive); GI50 [21]: > 100 µM (inactive); GI50 [22]: > 100 µM (inactive); GI50 [23]: > 100 µM (inactive); GI50 [24]: > 100 µM (inactive); GI50 [25]: > 100 µM (inactive); GI50 [26]: > 100 µM (inactive); GI50 [27]: > 100 µM (inactive); GI50 [28]: > 100 µM (inactive); GI50 [29]: > 100 µM (inactive); GI50 [30]: > 100 µM (inactive); GI50 [31]: > 100 µM (inactive); GI50 [32]: > 100 µM (inactive); GI50 [33]: > 100 µM (inactive); GI50 [34]: > 100 µM (inactive); GI50 [35]: > 100 µM (inactive); GI50 [36]: > 100 µM (inactive); GI50 [37]: > 100 µM (inactive); GI50 [38]: > 100 µM (inactive); GI50 [39]: > 100 µM (inactive); GI50 [40]: > 100 µM (inactive); GI50 [41]: > 100 µM (inactive); GI50 [42]: > 100 µM (inactive); GI50 [43]: > 100 µM (inactive); GI50 [44]: > 100 µM (inactive); GI50 [45]: > 100 µM (inactive); GI50 [46]: > 100 µM (inactive); GI50 [47]: > 100 µM (inactive); GI50 [48]: > 100 µM (inactive); GI50 [49]: > 100 µM (inactive); GI50 [50]: > 100 µM (inactive); GI50 [51]: > 100 µM (inactive); GI50 [52]: > 100 µM (inactive); GI50 [53]: > 100 µM (inactive)

Which results are given for `CCn1c(SC(C)C(=O)c2c(C)n(C)n(-c3ccccc3)c2=O)nc2ccccc2c1=O` (stereo not drawn)?
GI50 [1]: > 100 µM (inactive); GI50 [2]: > 100 µM (inactive); GI50 [3]: > 100 µM (inactive); GI50 [4]: > 100 µM (inactive); GI50 [6]: > 100 µM (inactive); GI50 [54]: > 100 µM (inactive); GI50 [7]: > 100 µM (inactive); GI50 [8]: > 100 µM (inactive); GI50 [9]: > 100 µM (inactive); GI50 [10]: 36.4 µM (inactive); GI50 [12]: > 100 µM (inactive); GI50 [13]: > 100 µM; GI50 [14]: > 100 µM (inactive); GI50 [15]: > 100 µM (inactive); GI50 [16]: 4.47 µM (inactive); GI50 [17]: > 100 µM (inactive); GI50 [18]: > 100 µM (inactive); GI50 [20]: > 100 µM (inactive); GI50 [21]: > 100 µM (inactive); GI50 [22]: > 100 µM (inactive); GI50 [55]: > 100 µM (inactive); GI50 [23]: > 100 µM (inactive); GI50 [24]: > 100 µM (inactive); GI50 [25]: > 100 µM (inactive); GI50 [26]: > 100 µM (inactive); GI50 [27]: > 100 µM (inactive); GI50 [28]: > 100 µM (inactive); GI50 [29]: > 100 µM (inactive); GI50 [30]: 84.1 µM (inactive); GI50 [31]: > 100 µM (inactive); GI50 [32]: > 100 µM (inactive); GI50 [33]: > 100 µM (inactive); GI50 [34]: > 100 µM (inactive); GI50 [35]: 95.1 µM (inactive); GI50 [37]: > 100 µM (inactive); GI50 [38]: > 100 µM (inactive); GI50 [39]: > 100 µM (inactive); GI50 [40]: > 100 µM (inactive); GI50 [41]: > 100 µM (inactive); GI50 [42]: > 100 µM (inactive); GI50 [43]: > 100 µM (inactive); GI50 [44]: > 100 µM (inactive); GI50 [46]: > 100 µM (inactive); GI50 [47]: > 100 µM (inactive); GI50 [56]: > 100 µM (inactive); GI50 [49]: > 100 µM (inactive); GI50 [50]: > 100 µM (inactive); GI50 [51]: > 100 µM (inactive); GI50 [52]: > 100 µM (inactive); GI50 [53]: > 100 µM (inactive)
